US9169241B2, “Quinolinyloxyphenylsulfonamides” (Max-Planck-Gesellschaft Zur Forderung der Wissenschaften …, priority 2009, dated 2015)

Assays:
[1] = system: Hs578T; experiment: Wound healing migration assay; format: cell-based; settings: Homo sapiens, Hs-578T; HS578T cell line; Table Ib
Method: This method mimics cell migration during wound healing in vivo. The basic steps involve creating a “wound” in a cell monolayer, capturing the images at the beginning and at regular intervals during cell migration to close the wound, and comparing the images to quantify the migration rate of the cells. In detail, 150000 cell/24 well have been seeded and allowed to form a monolayer overnight. Subsequently a “wound” or “scratch” has been performed with a 1000 μl pipette tip. The STDV of wound size is normally below 10% at time point t0. The assay was stopped by fixation with 0.05% Crystal violet/20% methanol when control scratches were closed. The assay was terminated between 48 h and 72 h depending on the migration potential of the indicated cell line. The “wounds” were visualized with a Zeiss Axiovert S100 microscope (Carl Zeiss UK, Welwyn Garden City, UK). The tested compounds were used at 12.5 μM, 6.25, 3.125 μM and DMSO control. IC50 values have been calculated as 50% wound size in between t0 and t48 or t72.

[2] = system: Hs578T; experiment: Matrigel outgrowth assay/branching assay; format: cell-based; settings: Homo sapiens, Hs-578T; HS578T cell line; Table Ib; read-out: Total branching inhibition in Matrigel HS578T
Method: The Matrigel outgrowth assay is based on the ability of tumor cell to penetrate a solid gel of extracellular matrix proteins mimicking the metastasis formation in vivo. While cells with low invasive potential appear as roundish cell or cell cluster, cells with high invasive potential penetrate the Matrigel and form polymorphic structures. In detail 65 μl of Matrigel matrix (Matrigel™ Matrix, BD Biosciences, Bedford, Mass., USA) with a concentration of 3 mg/ml have been polymerized in 96 well plates for 1 h at 37° C. Subsequently 5000 cell/well were seeded into each well containing cell culture medium and indicated compound with concentrations of 3.125 μM, 1.56 μM and 0.78 μM as well as DMSO control. After 48 h, 72 h and 96 h images of cell were taken on an inverted microscope using a 5× objective (Zeiss Axiovert S100 microscope Carl Zeiss UK, Welwyn Garden City, UK). Only compound concentrations were total branching inhibition was evident were accounted as positive. Method was used as previously described, with some modifications (Thompson E W, et al. Association of increased basement membrane invasiveness with absence of estrogen receptor and expression of vimentin in human breast cancer cell lines. J Cell Physiol 1992; 150:534-44).

[3] = system: Hs578T; experiment: Cell vitality assay (ATP assay, CellTiter-Glo); format: cell-based; settings: Homo sapiens, Hs-578T; HS578T cell line, 72 h; Table Ib; read-out: IC50 ATP-Assay HS578T after 72 h
Method: The CellTiter-Glo® Luminescent Cell Viability Assay (Promega Corporation. Madison, Wis., USA) is method a determining the number of viable cells in culture based on quantification of the ATP being present which is an indicator of metabolically active cells was used according to manufacturers protocol, In detail the assay was performed in a 96 well format were 1000 cells/well were incubated with indicated compound at concentration of 12.5 μM, 6.25 μM, 3.125 μM, 1.56 μM, 0.78 μM, 0.39 μM, 0.195 μM as well as DMSO control for 72 h in 100 μl cell culture medium. IC50 values were calculated as 50% of ATP amount compared to DMSO control.
Protocol for the CellTiter-Glo® Luminescent Cell Viability Assay • 1. Prepare opaque-walled multiwell plates with mammalian cells in culture medium, 100 μl per well for 96-well plates • 2. Prepare control wells containing medium without cells to obtain a value for background luminescence. • 3. Add the compound to be tested to experimental wells, and incubate according to culture protocol. • 4. Equilibrate the plate and its contents at room temperature for approximately 30 minutes. • 5. Add a volume of CellTiter-Glo® Reagent (Promega Corporation. Madison, Wis.) equal to the volume of cell culture medium present in each well. • 6. Mix contents for 2 minutes on an orbital shaker to induce cell lysis. • 7. Allow the plate to incubate at room temperature for 10 minutes to stabilize luminescent signal. • 8. Record luminescence on Microplate Luminometer LB96V (Berthold Tchnologies, Bad Wildbad, Germany). An integration time of 0.1 and 1 second per well

| IC50 [1] [µM] | melting point [°C] | Compound | IC50 [2] [µM] | IC50 [3] [µM] |
| --- | --- | --- | --- | --- |
| 12.5 to 50 | 96 to 98 | COc1cc2c(Oc3ccc(NS(=O)(=O)c4c(C)nn(C)c4C)cc3F)ccnc2cc1OCCCN1CCCCC1 [Example 159, 1,3,5-Trimethyl-1H-pyrazole-4-sulfonic acid {3-fluoro-4-[6-methoxy-7-(3-piperidin-1-yl-propoxy)-quinolin-4-yloxy]-phenyl}-amide] | 10 to 25 | ≤ 12.5 |
| 12.5 to 50 | 148 to 150 | COc1cc2c(Oc3cccc(NS(=O)(=O)c4sc(NC(C)=O)nc4C)c3)ccnc2cc1OCCCN1CCN(C)CC1 [Example 132, N-[5-(3-{6-Methoxy-7-[3-(4-methyl-piperazin-1-yl)-propoxy]-quinolin-4-yloxy}-phenylsulfamoyl)-4-methyl-thiazol-2-yl]-acetamide] | 10 to 25 | 12.5 to 50 |
| 12.5 to 50 | 167 to 168 | COc1cc2c(Oc3ccc(NS(=O)(=O)c4ccn(C)n4)cc3F)ccnc2cc1OCCCN1CCCCC1 [Example 163, 1-Methyl-1H-pyrazole-3-sulfonic acid {3-fluoro-4-[6-methoxy-7-(3-piperidin-1-yl-propoxy)-quinolin-4-yloxy]-phenyl}-amide] | 10 to 25 | ≤ 12.5 |
| 12.5 to 50 | 219 to 221 | COc1ccc2nccc(Oc3ccc(NS(=O)(=O)c4c(Cl)cccc4Cl)cc3F)c2c1 [Example 204, 2,6-Dichloro-N-[3-fluoro-4-(6-methoxy-quinolin-4-yloxy)-phenyl]-benzenesulfonamide] | 10 to 25 | 12.5 to 50 |
| 12.5 to 50 | 200 to 202 | COc1cc2c(Oc3cccc(NS(=O)(=O)c4c(C)noc4C)c3)ccnc2cc1OCCCN1CCN(C)CC1 [Example 138, 3,5-Dimethyl-isoxazole-4-sulfonic acid (3-{6-methoxy-7-[3-(4-methyl-piperazin-1-yl)-propoxy]-quinolin-4-yloxy}-phenyl)-amide] | 10 to 25 | 12.5 to 50 |
| 12.5 to 50 | 116 to 118 | COc1cc2c(Oc3cc(NS(=O)(=O)c4c(Cl)cccc4Cl)ccc3F)ccnc2cc1OCCCN1CCC(C)CC1 [Example 192, 2,6-Dichloro-N-(4-fluoro-3-{6-methoxy-7-[3-(4-methyl-piperidin-1-yl)-propoxy]-quinolin-4-yloxy}-phenyl)-benzenesulfonamide] | 10 to 25 | ≤ 12.5 |
| 12.5 to 50 | 220 to 222 | COc1ccc2nccc(Oc3ccc(NS(=O)(=O)c4ccc5ccccc5c4)cc3F)c2c1 [Example 205, Naphthalene-2-sulfonic acid [3-fluoro-4-(6-methoxy-quinolin-4-yloxy)-phenyl]-amide] | 10 to 25 | 12.5 to 50 |
| 12.5 to 50 | 165 to 166 | COc1cc2c(Oc3ccc(NS(=O)(=O)c4ccn(C)n4)cc3F)ccnc2cc1OCCCN1CCC(C)CC1 [Example 164, 1-Methyl-1H-pyrazole-3-sulfonic acid (3-fluoro-4-{6-methoxy-7-[3-(4-methyl-piperidin-1-yl)-propoxy]-quinolin-4-yloxy}-phenyl)-amide] | 10 to 25 | ≤ 12.5 |
| 12.5 to 50 | 160 to 163 | COc1cc2c(Oc3ccc(NS(=O)(=O)c4cnc(C)[nH]4)cc3F)ccnc2cc1OCCCN1CCCCC1 [Example 167, 2-Methyl-3H-imidazole-4-sulfonic acid {3-fluoro-4-[6-methoxy-7-(3-piperidin-1-yl-propoxy)-quinolin-4-yloxy]-phenyl}-amide] | 10 to 25 | 12.5 to 50 |
| 12.5 to 50 | 87 to 89 | CCOC(=O)COc1cc2nccc(Oc3ccc(NS(=O)(=O)c4ccccc4F)cc3F)c2cc1OC [Example 92, {4-[2-Fluoro-4-(2-fluoro-benzenesulfonylamino)-phenoxy]-6-methoxy-quinolin-7-yloxy}-acetic acid ethyl ester] | 10 to 25 | ≤ 12.5 |
| 12.5 to 50 | 198 to 199 | COc1cc2c(Oc3ccc(NS(=O)(=O)c4ccn(C)n4)cc3F)ccnc2cc1OCCCN1CCOCC1 [Example 165, 1-Methyl-1H-pyrazole-3-sulfonic acid {3-fluoro-4-[6-methoxy-7-(3-morpholin-4-yl-propoxy)-quinolin-4-yloxy]-phenyl}-amide] | 10 to 25 | ≤ 12.5 |
| 12.5 to 50 | 80 to 82 | COc1cc2c(Oc3cc(NS(=O)(=O)c4ccccc4OC(F)(F)F)ccc3F)ccnc2cc1OCCCN1CCC(C)CC1 [Example 190, N-(4-Fluoro-3-{6-methoxy-7-[3-(4-methyl-piperidin-1-yl)-propoxy]-quinolin-4-yloxy}-phenyl)-2-trifluoromethoxy-benzenesulfonamide] | 10 to 25 | 12.5 to 50 |
| ≤ 12.5 | 164 to 166 | COc1cc2c(Oc3cccc(NS(=O)(=O)c4ccccc4OC(F)(F)F)c3)ccnc2cc1OCCCN1CCN(C)CC1 [Example 126, N-(3-{6-Methoxy-7-[3-(4-methyl-piperazin-1-yl)-propoxy]-quinolin-4-yloxy}-phenyl)-2-trifluoromethoxy-benzenesulfonamide] | 10 to 25 | ≤ 12.5 |
| 12.5 to 50 | 179 to 181 | COc1cc2c(Oc3ccc(Cl)c(NS(=O)(=O)c4ccccc4C(F)(F)F)c3)ccnc2cc1OCCCN1CCC(C)CC1 [Example 195, N-(2-Chloro-5-{6-methoxy-7-[3-(4-methyl-piperidin-1-yl)-propoxy]-quinolin-4-yloxy}-phenyl)-2-trifluoromethyl-benzenesulfonamide] | 10 to 25 | 12.5 to 50 |
| 12.5 to 50 | 87 to 90 | CCn1cc(S(=O)(=O)Nc2cccc(Oc3ccnc4cc(OCCCN5CCN(C)CC5)c(OC)cc34)c2)cn1 [Example 140, 1-Ethyl-1H-pyrazole-4-sulfonic acid (3-{6-methoxy-7-[3-(4-methyl-piperazin-1-yl)-propoxy]-quinolin-4-yloxy}-phenyl)-amide] | 10 to 25 | 12.5 to 50 |
| 12.5 to 50 | 175 to 176 | COc1cc2c(Oc3ccc(NS(=O)(=O)c4ccn(C)n4)cc3F)ccnc2cc1OCCCN1CCCCC1C (stereo not drawn) [Example 150, 1-Methyl-1H-pyrazole-3-sulfonic acid (3-fluoro-4-{6-methoxy-7-[3-(2-methyl-piperidin-1-yl)-propoxy]-quinolin-4-yloxy}-phenyl)-amide] | 10 to 25 | ≤ 12.5 |

| Compound | IC50 [1] [µM] | melting point [°C] | IC50 [2] [µM] | IC50 [3] [µM] |
| --- | --- | --- | --- | --- |
| COc1cc2c(Oc3ccc(NS(=O)(=O)c4ccccc4C(F)(F)F)cc3F)ccnc2cc1OCCCCOC(C)=O [Example 212, Acetic acid 4-{4-[2-fluoro-4-(2-trifluoromethyl-benzenesulfonylamino)-phenoxy]-6-methoxy-quinolin-7-yloxy}-butyl ester] | 12.5 to 50 | 143 to 145 | 10 to 25 | 12.5 to 50 |
| COc1cc2c(Oc3ccc(NS(=O)(=O)c4cc(F)ccc4F)cc3F)ccnc2cc1OCCCNC(=O)OC(C)(C)C [Example 121, (3-{4-[4-(2,5-Difluoro-benzenesulfonylamino)-2-fluoro-phenoxy]-6-methoxy-quinolin-7-yloxy}-propyl)-carbamic acid tert-butyl ester] | 12.5 to 50 | 115 to 118 | 10 to 25 | 12.5 to 50 |
